System: not given
Experiment: not given
Details: not given

SMILES	melting point
CC(=O)Nc1cc2c(cc1[N+](=O)[O-])OC(C)(C)[C@H](O)[C@H]2NCCc1ccc([N+](=O)[O-])cc1 (stereo in doubt)	211 to 213 °C (dec.)

System: guinea-pig left atrium muscle
Experiment: Effects of compound on the functional refractory period in guinea-pig left atrium muscle
Details: isolated atrium muscle, stimulated at 1 Hz, compound added cumulatively, 15 minutes per concentration, 36±1° C.
Source text: Effects of compound on the functional refractory period in guinea-pig left atrium muscle and right ventricular papillary muscle
Hearts were removed from guinea-pigs, and left atrium muscle or right ventricular papillary muscle were isolated therefrom in a Krebs-Henseleit solution aerated with 95% O2+5% CO2. The samples were stimulated electrically at a rate of 1 Hz and a voltage of 1.5 times of the threshold value reacted to stimulation (basic stimulation; S1) by using an electric stimulating apparatus. The contraction occurred at that time was recorded by a thermal stylus recorder via a FD pickup and a strain pressure amplifier. The functional refractory period is defined as the shortest time interval between S1 resulting from determinable contraction and an extra stimulation (S2). The time interval between S1 and S2 in the left atrium muscle sample was started from 150 msec, decreased in 10 msec steps until 100 msec, and thereafter 5 msec steps to the functional refractory period. For the right ventricular papillary muscle sample, it was started from 300 msec and decreased in 10 msec steps until the functional refractory period. Herein, S2 was set at twice of the threshold value which reacted to stimulation. The experimental temperature was 36±1° C. […] After determining the basic value before addition of the compound, the compound was added cumulatively, incubated for 15 minutes for respective concentration, and thereafter the functional refractory period was determined.

SMILES	Prolongation effect on FRP EC20 [µM]
CC(=O)Nc1cc2c(cc1[N+](=O)[O-])OC(C)(C)[C@H](O)[C@H]2NCCc1ccc(Cl)cc1 [compound 6]	1.4
CC(=O)Nc1cc2c(cc1[N+](=O)[O-])OC(C)(C)[C@H](O)[C@H]2NCCc1ccccc1 [compound 1]	6.1
CC(=O)Nc1cc2c(cc1[N+](=O)[O-])OC(C)(C)[C@H](O)[C@H]2NCCCCc1ccccc1 [compound 3]	4.0
CC(=O)Nc1cc2c(cc1[N+](=O)[O-])OC(C)(C)[C@H](O)[C@H]2NCCc1ccc(O)cc1 [compound 4]	5.0
CC(=O)Nc1cc2c(cc1[N+](=O)[O-])OC(C)(C)[C@H](O)[C@H]2NCCc1ccc([N+](=O)[O-])cc1 [compound 8]	1.8
COc1ccc(CCN[C@H]2c3cc(NC(C)=O)c([N+](=O)[O-])cc3OC(C)(C)[C@@H]2O)cc1 [compound 5]	5.5

— patent US6589983B1, “Benzopyran derivative” (Nissan Chemical Industries, Ltd., priority 1999, dated 2003)
